Test results published in ChEMBL document CHEMBL4196131 (J Med Chem, 2018).
pEC50, pIC50, pKi: −log10 of the molar value.

Tests used:
Estrogen receptor beta [1] = target: T1, Estrogen receptor beta (Homo sapiens, UniProt Q92731); assay: Agonist activity at human ERbeta expressed in HEK293T cells after 24 hrs by ERE-based dual luciferase reporter gene assay relative to E2; type: cell-based
[2] = Inhibition of NFkappaB in mouse RAW 264.7 cells assessed as reduction in LPS induced NO production after 24 hrs by Griess assay; type: cell-based; settings: RAW264.7, 24 h
Mus musculus = organism: Mus musculus; assay: Inhibition of NFkappaB in mouse RAW 264.7 cells assessed as reduction in LPS induced NO production at 10 uM after 24 hrs by Griess assay relative to control; type: cell-based
MCF7 = assay: cells; settings: Homo sapiens, MCF7, 72 h
Estrogen receptor beta [3] = target: T1, Estrogen receptor beta; assay: Agonist activity at human ERbeta expressed in HEK293T cells after 24 hrs by ERE-based dual luciferase reporter gene assay; type: cell-based
Estrogen receptor beta [4] = target: T1, Estrogen receptor beta; assay: Antagonist activity at human ERbeta expressed in HEK293T cells after 24 hrs by ERE-based dual luciferase reporter gene assay relative to E2; type: cell-based; parameters: concentration or dose not given beside the values
[5] = target: T2, Estrogen receptor (Homo sapiens) (UniProt P03372); assay: Antagonist activity at human ERalpha expressed in HEK293T cells after 24 hrs by ERE-based dual luciferase reporter gene assay relative to E2; type: cell-based
T2 sequence (whole entry): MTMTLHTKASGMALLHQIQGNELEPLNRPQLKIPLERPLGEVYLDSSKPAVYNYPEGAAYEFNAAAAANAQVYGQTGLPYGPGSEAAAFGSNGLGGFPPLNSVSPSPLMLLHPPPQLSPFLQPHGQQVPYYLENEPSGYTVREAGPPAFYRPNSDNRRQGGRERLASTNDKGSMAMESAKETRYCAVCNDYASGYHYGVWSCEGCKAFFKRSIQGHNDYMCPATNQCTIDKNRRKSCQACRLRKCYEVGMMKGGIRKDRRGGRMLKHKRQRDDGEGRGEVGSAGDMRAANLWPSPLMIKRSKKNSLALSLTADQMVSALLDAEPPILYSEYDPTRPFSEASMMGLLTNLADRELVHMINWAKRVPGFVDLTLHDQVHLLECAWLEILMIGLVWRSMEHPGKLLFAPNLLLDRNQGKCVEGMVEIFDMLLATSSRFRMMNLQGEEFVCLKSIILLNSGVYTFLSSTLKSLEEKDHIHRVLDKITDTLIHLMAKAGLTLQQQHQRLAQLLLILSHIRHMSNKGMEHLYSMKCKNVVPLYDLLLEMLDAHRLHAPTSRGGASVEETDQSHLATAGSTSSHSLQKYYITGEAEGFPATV

[6] = target: T2, Estrogen receptor (Homo sapiens); assay: Agonist activity at human ERalpha expressed in HEK293T cells after 24 hrs by ERE-based dual luciferase reporter gene assay relative to E2; type: cell-based
Estrogen receptor [7] = target: T3, Estrogen receptor (Homo sapiens, UniProt P03372); assay: Antagonist activity at human ERalpha expressed in HEK293T cells after 24 hrs by ERE-based dual luciferase reporter gene assay; type: cell-based
T3 sequence (P03372 whole entry): T2 sequence (whole entry)

Estrogen receptor beta [8] = target: T1, Estrogen receptor beta; assay: Antagonist activity at human ERbeta expressed in HEK293T cells after 24 hrs by ERE-based dual luciferase reporter gene assay; type: cell-based
Estrogen receptor [9] = target: T3, Estrogen receptor; assay: Agonist activity at human ERalpha expressed in HEK293T cells after 24 hrs by ERE-based dual luciferase reporter gene assay; type: cell-based
Estrogen receptor beta [10] = target: T1, Estrogen receptor beta; assay: Binding affinity to human ERbeta LBD after 2 hrs in absence of light by competitive fluorometric binding assay

T1 sequence (Q92731 whole entry): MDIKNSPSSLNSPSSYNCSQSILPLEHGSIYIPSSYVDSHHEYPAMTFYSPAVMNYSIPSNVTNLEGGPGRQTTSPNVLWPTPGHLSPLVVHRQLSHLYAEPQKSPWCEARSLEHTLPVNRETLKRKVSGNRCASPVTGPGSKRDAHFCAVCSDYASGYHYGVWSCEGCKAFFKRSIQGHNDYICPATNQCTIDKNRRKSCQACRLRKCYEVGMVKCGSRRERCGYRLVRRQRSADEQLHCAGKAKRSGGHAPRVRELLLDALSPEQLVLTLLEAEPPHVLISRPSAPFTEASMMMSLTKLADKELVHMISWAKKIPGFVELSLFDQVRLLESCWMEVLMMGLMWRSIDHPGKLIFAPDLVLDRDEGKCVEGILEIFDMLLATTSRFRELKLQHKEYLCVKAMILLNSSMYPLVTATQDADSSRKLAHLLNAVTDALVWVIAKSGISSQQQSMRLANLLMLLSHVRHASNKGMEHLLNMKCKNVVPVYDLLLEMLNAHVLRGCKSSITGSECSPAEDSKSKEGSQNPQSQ

| SMILES | Efficacy (Estrogen receptor beta [1]) | pIC50 [2] | inhibition (Mus musculus) | pIC50 (MCF7) | pEC50 (Estrogen receptor beta [3]) | Efficacy (Estrogen receptor beta [4]) | Efficacy [5] | Efficacy [6] | pIC50 (Estrogen receptor [7]) | pIC50 (Estrogen receptor beta [8]) | pEC50 (Estrogen receptor [9]) | pKi (Estrogen receptor beta [10]) |
| --- | --- | --- | --- | --- | --- | --- | --- | --- | --- | --- | --- | --- |
| O=S(=O)(Oc1ccccc1)C1CC2OC1C(c1ccc(/C=C/c3cc(O)cc(O)c3)cc1)=C2c1ccc(O)cc1 (configuration not stated) | 37% | 5.22 | 70.9% | 4.70 | 6.18 | 76% | 4% | 29% | 6.37 |  |  |  |
| O=S(=O)(Oc1cccc(C(F)(F)F)c1)C1CC2OC1C(c1ccc(/C=C/c3cc(O)cc(O)c3)cc1)=C2c1ccc(O)cc1 (configuration not stated) | 29% | 4.84 | 41.6% | 4.94 | 5.76 | 31% | -10% | -7% | 7.14 | 7.38 |  |  |
| O=S(=O)(Oc1ccccc1Cl)C1CC2OC1C(c1ccc(/C=C/c3cc(O)cc(O)c3)cc1)=C2c1ccc(O)cc1 (configuration not stated) | 25% | 5.30 | 60.9% | 4.39 | 7.20 | 45% | 49% | 79% | 6.78 | 5.37 | 6.56 |  |
| COc1cc(/C=C/c2cccc(OS(=O)(=O)C3CC4OC3C(c3ccc(O)cc3)=C4c3ccc(O)cc3)c2)cc(OC)c1 (configuration not stated) | 47% | 5.20 | 55.1% | 4.94 |  | 86% | 47% | 13% | 6.13 |  |  |  |
| COc1cc(/C=C/c2ccc(OS(=O)(=O)[C@@H]3C[C@@H]4O[C@H]3C(c3ccc(O)cc3)=C4c3ccc(O)cc3)cc2)cc(OC)c1 |  | 6.52 |  | 5.64 |  |  | 11% |  | 8.52 |  |  |  |
| COc1cc(/C=C/c2ccc(C3=C(c4ccc(O)cc4)C4CC(S(=O)(=O)Oc5cccc(OC)c5)C3O4)cc2)cc(OC)c1 (configuration not stated) | 37% | 5.90 | 60.1% | 4.11 | 6.03 | 39% | 32% | -2% |  | 6.19 |  |  |
| CC/C(=C(\c1ccc(O)cc1)c1ccc(OCCN(C)C)cc1)c1ccccc1 [AFIMOXIFENE] |  | < 4.00 | 21.5% | 5.02 |  |  |  |  |  |  |  |  |
| O=S(=O)(Oc1ccc(Cl)cc1)C1CC2OC1C(c1ccc(/C=C/c3cc(O)cc(O)c3)cc1)=C2c1ccc(O)cc1 (configuration not stated) | 7% | 5.19 | 62.1% | 4.75 |  | 33% | 11% | -5% | 7.21 | 5.99 |  |  |
| O=S(=O)(Oc1ccc(-c2ccccc2)cc1)C1CC2OC1C(c1ccc(/C=C/c3cc(O)cc(O)c3)cc1)=C2c1ccc(O)cc1 (configuration not stated) | 82% | 4.73 | 43% | 5.11 | 7.37 | 97% | 68% | 41% |  |  | 5.31 |  |
| O=S(=O)(Oc1cccc(/C=C/c2cc(O)cc(O)c2)c1)C1CC2OC1C(c1ccc(O)cc1)=C2c1ccc(O)cc1 (configuration not stated) | 62% | 4.78 | 24.8% | 4.75 | 6.13 | 93% | 29% | 15% | 5.85 |  |  | 5.34 |
| COc1cccc(OS(=O)(=O)C2CC3OC2C(c2ccc(/C=C/c4cc(O)cc(O)c4)cc2)=C3c2ccc(O)cc2)c1 (configuration not stated) | 52% | 4.95 | 42.3% | 4.98 | 8.52 | 102% | 36% | 55% | 7.32 |  |  |  |
| CCc1ccccc1OS(=O)(=O)C1CC2OC1C(c1ccc(/C=C/c3cc(OC)cc(OC)c3)cc1)=C2c1ccc(O)cc1 (configuration not stated) | 20% | 6.10 | 65.4% | 4.30 | 8.05 | 72% | 37% | 18% | 8.52 |  | 6.84 |  |
| O=S(=O)(Oc1cccc(O)c1)C1CC2OC1C(c1ccc(/C=C/c3cc(O)cc(O)c3)cc1)=C2c1ccc(O)cc1 (configuration not stated) | 17% | < 4.00 | 12.3% | 4.64 |  | 106% | 17% | 5% | 5.22 |  |  |  |
| O=S(=O)(Oc1cccc2ccccc12)C1CC2OC1C(c1ccc(/C=C/c3cc(O)cc(O)c3)cc1)=C2c1ccc(O)cc1 (configuration not stated) | 65% | 5.48 | 44.4% | 4.96 | 6.65 | 71% | -4% | -10% | 7.31 |  |  |  |
| O=S(=O)(Oc1ccc(O)cc1)C1CC2OC1C(c1ccc(/C=C/c3cc(O)cc(O)c3)cc1)=C2c1ccc(O)cc1 (configuration not stated) | 51% |  | 41% | 4.85 | 6.45 | 88% | 8% | 12% | 7.27 |  |  |  |
| Cc1cccc(OS(=O)(=O)C2CC3OC2C(c2ccc(/C=C/c4cc(O)cc(O)c4)cc2)=C3c2ccc(O)cc2)c1 (configuration not stated) | -3% | 5.62 | 68.4% | 4.79 |  | 46% | 2% | 22% | 6.02 | 5.51 |  |  |
| O=S(=O)(Oc1ccc(/C=C/c2ccccc2)cc1)C1CC2OC1C(c1ccc(O)cc1)=C2c1ccc(O)cc1 (configuration not stated) | 25% | 5.65 | 72.4% | 5.08 | 7.51 | 74% | 54% | 6% | 6.83 |  |  |  |
| O=S(=O)(Oc1ccc(F)cc1)C1CC2OC1C(c1ccc(/C=C/c3cc(O)cc(O)c3)cc1)=C2c1ccc(O)cc1 (configuration not stated) | 45% | 5.05 | 71.9% | 4.88 | 6.56 | 98% | 7% | 16% | 8.30 |  |  |  |
| O=S(=O)(Oc1ccccc1)C1CC2OC1C(c1ccc(/C=C/c3ccccc3)cc1)=C2c1ccc(O)cc1 (configuration not stated) | 48% | 5.01 | 40.4% | 4.60 | 5.56 | 83% | 34% | 13% | 5.99 |  |  |  |
| Cc1ccccc1OS(=O)(=O)C1CC2OC1C(c1ccc(/C=C/c3cc(O)cc(O)c3)cc1)=C2c1ccc(O)cc1 (configuration not stated) | 36% | 4.55 | 39.1% | 4.25 | 6.62 | 100% | 36% | 84% | 8.00 |  | 5.90 |  |
| O=S(=O)(Oc1ccc(Br)cc1)C1CC2OC1C(c1ccc(/C=C/c3cc(O)cc(O)c3)cc1)=C2c1ccc(O)cc1 (configuration not stated) | 10% | 4.78 | 22% | 4.77 |  | 43% | 15% | -9% | 7.21 | 5.60 |  |  |
| O=S(=O)(Oc1ccc(/C=C/c2cc(O)cc(O)c2)cc1)C1CC2OC1C(c1ccc(O)cc1)=C2c1ccc(O)cc1 (configuration not stated) | 51% | 6.03 | 81% | 4.98 | 6.71 | 99% | 7% | -9% | 7.72 |  |  |  |
| COc1cc(/C=C/c2ccc(OS(=O)(=O)[C@H]3C[C@H]4O[C@@H]3C(c3ccc(O)cc3)=C4c3ccc(O)cc3)cc2)cc(OC)c1 |  | 6.32 |  | 4.75 |  |  | 72% |  | 7.57 |  |  |  |
| O=S(=O)(Oc1cccc(Cl)c1)C1CC2OC1C(c1ccc(/C=C/c3cc(O)cc(O)c3)cc1)=C2c1ccc(O)cc1 (configuration not stated) | 60% | 5.67 | 62.1% | 4.89 | 8.70 | 91% | 4% | 16% | 6.03 |  |  |  |
| O=S(=O)(Oc1cccc(Br)c1)C1CC2OC1C(c1ccc(/C=C/c3cc(O)cc(O)c3)cc1)=C2c1ccc(O)cc1 (configuration not stated) | -2% | 5.60 | 60.9% | 4.70 |  | 65% | 21% | 3% | 5.62 |  |  | 7.30 |
